According to the NIST ThermoML archive (doi:10.1021/je700546r):
Where “and” joins values, the source holds several entries; their conditions need not be identical. Equal entries are not always repeated.

Test: molar heat capacity at saturation pressure
Conditions: Small (less than 1 g) adiabatic calorimetry

ON=C1CCCCC1 [cyclohexanone oxime]
Conditions	molar heat capacity
224.01 K, Crystal 3	136.62 J/K/mol
224.62 K, Crystal 3	137.24 J/K/mol
224.76 K, Crystal 3	137.52 J/K/mol
225.92 K, Crystal 3	138.42 J/K/mol
226.48 K, Crystal 3	138.92 J/K/mol
226.5 K, Crystal 3	139.12 J/K/mol
227.85 K, Crystal 3	140.09 J/K/mol
228.24 K, Crystal 3	140.6 J/K/mol
228.33 K, Crystal 3	140.45 J/K/mol
229.78 K, Crystal 3	141.6 J/K/mol
229.98 K, Crystal 3	141.91 J/K/mol
230.18 K, Crystal 3	141.86 J/K/mol
231.71 K, Crystal 3	143.03 J/K/mol and 143.15 J/K/mol
232.03 K, Crystal 3	143.15 J/K/mol
233.43 K, Crystal 3	144.26 J/K/mol
233.64 K, Crystal 3	144.32 J/K/mol
233.87 K, Crystal 3	144.33 J/K/mol
235.14 K, Crystal 3	145.41 J/K/mol
235.57 K, Crystal 3	145.51 J/K/mol
235.71 K, Crystal 3	145.65 J/K/mol
236.85 K, Crystal 3	146.62 J/K/mol
237.5 K, Crystal 3	146.68 J/K/mol
237.54 K, Crystal 3	146.94 J/K/mol
238.56 K, Crystal 3	147.84 J/K/mol
239.36 K, Crystal 3	148.9 J/K/mol
239.43 K, Crystal 3	148.81 J/K/mol
239.79 K, Crystal 3	150.04 J/K/mol
241.18 K, Crystal 3	153.75 J/K/mol
241.36 K, Crystal 3	153.6 J/K/mol
241.48 K, Crystal 3	154.07 J/K/mol
242.99 K, Crystal 2	148.41 J/K/mol
243.3 K, Crystal 2	148.43 J/K/mol
243.42 K, Crystal 2	148.52 J/K/mol
244.82 K, Crystal 2	149.34 J/K/mol
245.25 K, Crystal 2	149.53 J/K/mol
245.37 K, Crystal 2	149.83 J/K/mol
246.66 K, Crystal 2	150.69 J/K/mol
247.07 K, Crystal 2	151.16 J/K/mol
247.18 K, Crystal 2	150.98 J/K/mol
248.48 K, Crystal 2	152.19 J/K/mol
248.78 K, Crystal 2	152.63 J/K/mol
250.29 K, Crystal 2	153.82 J/K/mol
250.48 K, Crystal 2	154.01 J/K/mol
252.11 K, Crystal 2	155.49 J/K/mol
252.36 K, Crystal 2	155.81 J/K/mol
253.91 K, Crystal 2	157.22 J/K/mol
254.12 K, Crystal 2	157.42 J/K/mol
255.71 K, Crystal 2	159 J/K/mol
255.8 K, Crystal 2	159.11 J/K/mol
257.47 K, Crystal 2	160.79 J/K/mol
257.5 K, Crystal 2	160.82 J/K/mol
259.14 K, Crystal 2	162.49 J/K/mol
259.28 K, Crystal 2	162.64 J/K/mol
260.8 K, Crystal 2	164.29 J/K/mol
261.05 K, Crystal 2	164.53 J/K/mol
262.46 K, Crystal 2	166.09 J/K/mol
262.82 K, Crystal 2	166.41 J/K/mol
264.11 K, Crystal 2	167.84 J/K/mol
264.58 K, Crystal 2	168.33 J/K/mol
265.75 K, Crystal 2	169.58 J/K/mol
266.34 K, Crystal 2	170.21 J/K/mol
267.39 K, Crystal 2	171.43 J/K/mol
268.08 K, Crystal 2	172.13 J/K/mol
269.02 K, Crystal 2	173.27 J/K/mol
269.82 K, Crystal 2	174.08 J/K/mol
270.64 K, Crystal 2	175.04 J/K/mol
271.56 K, Crystal 2	175.95 J/K/mol
272.26 K, Crystal 2	176.79 J/K/mol
273.28 K, Crystal 2	177.73 J/K/mol
273.87 K, Crystal 2	178.52 J/K/mol
275.02 K, Crystal 2	179.53 J/K/mol
275.47 K, Crystal 2	180.26 J/K/mol
276.74 K, Crystal 2	181.37 J/K/mol
277.08 K, Crystal 2	181.92 J/K/mol
278.45 K, Crystal 2	183.01 J/K/mol
278.67 K, Crystal 2	183.43 J/K/mol
280.15 K, Crystal 2	184.62 J/K/mol
280.26 K, Crystal 2	185.03 J/K/mol
281.85 K, Crystal 2	186.12 J/K/mol and 186.38 J/K/mol
283.43 K, Crystal 2	187.69 J/K/mol
283.54 K, Crystal 2	187.5 J/K/mol
285.01 K, Crystal 2	188.93 J/K/mol
285.24 K, Crystal 2	188.79 J/K/mol
286.58 K, Crystal 2	189.97 J/K/mol
286.93 K, Crystal 2	189.9 J/K/mol
288.15 K, Crystal 2	191 J/K/mol
288.61 K, Crystal 2	190.97 J/K/mol
289.72 K, Crystal 2	191.92 J/K/mol
290.29 K, Crystal 2	191.83 J/K/mol
291.28 K, Crystal 2	192.69 J/K/mol
291.97 K, Crystal 2	192.78 J/K/mol
292.14 K, Crystal 2	192.79 J/K/mol
292.85 K, Crystal 2	193.59 J/K/mol
293.65 K, Crystal 2	193.64 J/K/mol
293.7 K, Crystal 2	193.66 J/K/mol
294.41 K, Crystal 2	194.19 J/K/mol
295.26 K, Crystal 2	194.41 J/K/mol
295.32 K, Crystal 2	194.51 J/K/mol
295.97 K, Crystal 2	194.99 J/K/mol
296.81 K, Crystal 2	195.24 J/K/mol
297 K, Crystal 2	195.34 J/K/mol
297.53 K, Crystal 2	195.76 J/K/mol
298.36 K, Crystal 2	196.04 J/K/mol
298.66 K, Crystal 2	196.34 J/K/mol
299.09 K, Crystal 2	196.66 J/K/mol
299.91 K, Crystal 2	197.34 J/K/mol
300.33 K, Crystal 2	197.85 J/K/mol
300.64 K, Crystal 2	198.3 J/K/mol
301.45 K, Crystal 2	198.75 J/K/mol
301.99 K, Crystal 1	196.75 J/K/mol
302.19 K, Crystal 1	195.88 J/K/mol
303.01 K, Crystal 1	192.59 J/K/mol
303.67 K, Crystal 1	191.89 J/K/mol
303.76 K, Crystal 1	191.84 J/K/mol
304.57 K, Crystal 1	191.66 J/K/mol
305.34 K, Crystal 1	191.58 J/K/mol
305.36 K, Crystal 1	191.49 J/K/mol
305.83 K, Crystal 1	191.51 J/K/mol
306.14 K, Crystal 1	191.69 J/K/mol
306.91 K, Crystal 1	191.81 J/K/mol
307.05 K, Crystal 1	191.78 J/K/mol
307.6 K, Crystal 1	191.89 J/K/mol
307.71 K, Crystal 1	191.96 J/K/mol
308.49 K, Crystal 1	192.2 J/K/mol
308.74 K, Crystal 1	192.41 J/K/mol
309.27 K, Crystal 1	192.53 J/K/mol
309.38 K, Crystal 1	192.47 J/K/mol
310.07 K, Crystal 1	192.72 J/K/mol
310.43 K, Crystal 1	193 J/K/mol
310.95 K, Crystal 1	193.22 J/K/mol
311.16 K, Crystal 1	193.22 J/K/mol
311.68 K, Crystal 1	193.28 J/K/mol
312.22 K, Crystal 1	193.77 J/K/mol
312.72 K, Crystal 1	193.93 J/K/mol
312.94 K, Crystal 1	194.04 J/K/mol
313.36 K, Crystal 1	194.05 J/K/mol
314.11 K, Crystal 1	194.56 J/K/mol
314.48 K, Crystal 1	194.7 J/K/mol
314.72 K, Crystal 1	194.7 J/K/mol
315.03 K, Crystal 1	194.86 J/K/mol
316 K, Crystal 1	195.45 J/K/mol
316.25 K, Crystal 1	195.55 J/K/mol
316.49 K, Crystal 1	195.61 J/K/mol
316.71 K, Crystal 1	195.66 J/K/mol
317.89 K, Crystal 1	196.42 J/K/mol
318.01 K, Crystal 1	196.38 J/K/mol
318.27 K, Crystal 1	196.48 J/K/mol
318.38 K, Crystal 1	196.46 J/K/mol
319.77 K, Crystal 1	197.45 J/K/mol and 197.36 J/K/mol
320.04 K, Crystal 1	197.43 J/K/mol
320.11 K, Crystal 1	197.4 J/K/mol
321.54 K, Crystal 1	198.27 J/K/mol
321.81 K, Crystal 1	198.43 J/K/mol
321.98 K, Crystal 1	198.37 J/K/mol
323.3 K, Crystal 1	199.26 J/K/mol
323.58 K, Crystal 1	199.58 J/K/mol
323.8 K, Crystal 1	199.44 J/K/mol
325.05 K, Crystal 1	200.28 J/K/mol
325.35 K, Crystal 1	200.52 J/K/mol
325.62 K, Crystal 1	200.47 J/K/mol
326.81 K, Crystal 1	201.27 J/K/mol
327.11 K, Crystal 1	201.48 J/K/mol
327.43 K, Crystal 1	201.55 J/K/mol
328.56 K, Crystal 1	202.22 J/K/mol
328.87 K, Crystal 1	202.64 J/K/mol
329.24 K, Crystal 1	202.56 J/K/mol
330.32 K, Crystal 1	203.27 J/K/mol
330.63 K, Crystal 1	203.71 J/K/mol
331.06 K, Crystal 1	203.58 J/K/mol
331.23 K, Crystal 1	203.73 J/K/mol
332.4 K, Crystal 1	204.63 J/K/mol
332.88 K, Crystal 1	204.71 J/K/mol
332.98 K, Crystal 1	204.75 J/K/mol
334.15 K, Crystal 1	205.6 J/K/mol
334.7 K, Crystal 1	205.74 J/K/mol
334.74 K, Crystal 1	205.77 J/K/mol
335.91 K, Crystal 1	206.77 J/K/mol
336.49 K, Crystal 1	206.75 J/K/mol
336.52 K, Crystal 1	206.77 J/K/mol
337.67 K, Crystal 1	207.8 J/K/mol
338.25 K, Crystal 1	207.78 J/K/mol
338.35 K, Crystal 1	207.86 J/K/mol
339.42 K, Crystal 1	208.77 J/K/mol
339.99 K, Crystal 1	208.85 J/K/mol
340.17 K, Crystal 1	209 J/K/mol
341.17 K, Crystal 1	209.83 J/K/mol
341.74 K, Crystal 1	209.95 J/K/mol
341.99 K, Crystal 1	210.15 J/K/mol
342.93 K, Crystal 1	210.86 J/K/mol
343.49 K, Crystal 1	210.94 J/K/mol
343.81 K, Crystal 1	211.29 J/K/mol
344.68 K, Crystal 1	212.1 J/K/mol
345.25 K, Crystal 1	212.02 J/K/mol
345.63 K, Crystal 1	212.36 J/K/mol
346.43 K, Crystal 1	213.18 J/K/mol
346.99 K, Crystal 1	213.12 J/K/mol
347.45 K, Crystal 1	213.43 J/K/mol
348.18 K, Crystal 1	214.14 J/K/mol
348.74 K, Crystal 1	214.13 J/K/mol
349.27 K, Crystal 1	214.58 J/K/mol
349.93 K, Crystal 1	215.3 J/K/mol
350.48 K, Crystal 1	215.24 J/K/mol
351.09 K, Crystal 1	215.74 J/K/mol
351.67 K, Crystal 1	216.38 J/K/mol
352.41 K, Crystal 1	216.96 J/K/mol
352.91 K, Crystal 1	217.26 J/K/mol
353.42 K, Crystal 1	217.49 J/K/mol
354.55 K, Crystal 1	219.52 J/K/mol
354.73 K, Crystal 1	219 J/K/mol
355.16 K, Crystal 1	218.64 J/K/mol
363.8 K, Liquid	272.42 J/K/mol
364.48 K, Liquid	272.66 J/K/mol
364.59 K, Liquid	273 J/K/mol
365.34 K, Liquid	273.22 J/K/mol
365.92 K, Liquid	273.48 J/K/mol
366.16 K, Liquid	273.91 J/K/mol
366.88 K, Liquid	274.16 J/K/mol
367.36 K, Liquid	274.33 J/K/mol
367.52 K, Liquid	274.57 J/K/mol
367.73 K, Liquid	274.96 J/K/mol
368.42 K, Liquid	275.12 J/K/mol
368.79 K, Liquid	275.25 J/K/mol
368.96 K, Liquid	275.31 J/K/mol
